Results reported in ChEMBL document CHEMBL3286153, “Evaluation of the antiviral efficacy of bis[1,2]dithiolo[1,4]thiazines and bis[1,2]dithiolopyrrole derivatives against the nucelocapsid protein of the Feline Immunodeficiency Virus (FIV) as a model for HIV infection” (Bioorg Med Chem Lett, 2014).

How the values were obtained:
[1] = Cytotoxicity against cat CRFK cells assessed as cell viability at 10 uM after 24 hrs by MTT assay; format: cell-based, Felis catus; conditions: read-out: Activity
[2] = Cytotoxicity against cat CRFK cells assessed as cell viability after 7 days by MTT assay; format: cell-based, Felis catus; conditions: for CC50 at 168 h: CRFK cells; for CC50: crfk, 168 h
[3] = system: Feline immunodeficiency virus; assay: Antiviral activity against Feline immunodeficiency virus infected in cat FL-4 cells assessed as viral RNA production by RT-qPCR; format: functional, organism-based
[4] = Therapeutic index, ratio of CC50 for cat CRFK cells to EC50 for Feline immunodeficiency virus infected in cat FL-4 cells; format: cell-based; conditions: for selectivity ratio: read-out: Ratio CC50/EC50; for Ratio CC50/EC50: crfk
[5] = Feline immunodeficiency virus, FL-4, read-out: EC50

| Structure (SMILES) | viability at 24 h, 10 µM [1] | CC50 at 168 h [2] | EC50 [3, 5] | selectivity ratio [4] | CC50 [2] | EC50 ([3]; fl-4) | Ratio CC50/EC50 [4] |
| --- | --- | --- | --- | --- | --- | --- | --- |
| CCN1c2c(ssc2=S)Sc2ssc(=S)c21 | 98.8% | 31 nM | < 1 nM | > 31 | – | – | – |
| CCn1c2c(=S)ssc2c2ssc(=S)c21 | > 100% | 20100 nM | 656 nM | 30.6 | – | – | – |
| O=C(O)CCN1c2c(ssc2=S)Sc2ssc(=S)c21 | 97.2% | 1720 nM | 379 nM | 4.5 | – | – | – |
| CCN1c2c(ssc2=O)Sc2ssc(=O)c21 | 40.2% | – | – | – | ND(toxic) | ND(toxic) | ND(toxic) |
| CCOC(=O)CCN1c2c(ssc2=O)Sc2ssc(=O)c21 | 76.8% | 56 nM | 16.2 nM | 3.5 | – | – | – |
| CC(=O)OCCN1c2c(ssc2=O)Sc2ssc(=O)c21 | 39.2% | – | – | – | ND(toxic) | ND(toxic) | ND(toxic) |
| CCN1c2c(ssc2=O)Sc2ssc(=S)c21 | > 100% | > 10000 nM | 345 nM | > 29 | – | – | – |
| CCOC(=O)CCN1c2c(ssc2=O)Sc2ssc(=S)c21 | 91.2% | 2270 nM | 642 nM | 3.5 | – | – | – |
| CCOC(=O)CCn1c2c(=O)ssc2c2ssc(=O)c21 | 78.2% | – | – | – | ND(toxic) | ND(toxic) | ND(toxic) |
| Cc1nnc(C(=O)NC(C)(C)c2nc(C(=O)NCc3ccc(F)cc3)c(O)c(=O)n2C)o1 [RALTEGRAVIR] | > 100% | > 100000 nM | 9.98 nM | > 100000 | – | – | – |
| Cc1cn([C@H]2C[C@H](N=[N+]=[N-])[C@@H](CO)O2)c(=O)[nH]c1=O [ZIDOVUDINE] | > 100% | > 100000 nM | 5310 nM | > 18.8 | – | – | – |
